# Experimental data taken from patent EP1509519B1, “CRYSTALLINE FLUOROQUINOLONE ARGININE SALT FORM” (Wockhardt Limited, priority 2002, dated 2003).
# “And” between values parts separate entries of the source, which are not always exact repeats. Identical values can stand only once.
# Legend:
# [1] = mean mass diameter determination (laser diffraction); conditions: for Mean mass diameter: individual samples made by the procedure of example 1, laser diffraction
# bioavailability = experiment: bioavailability; set-up: species or system mammals; conditions: in vivo
# [2] = bulk density determination; type: physicochemical
# From the text: Untapped density = 25 g/untapped volume. […] Tapped density = 25 g/Tapped volume.
# [3] = water
compound,measurement,setting,value
"R-(+)-9-fluoro-6,7-dihydro-8-(4-hydroxypiperidin-1-yl)-5-methyl-1-oxo-1H,5H-benzo [ij]-quinolizine-2-carboxylic acid DL-arginine salt",antimicrobial activity,antimicrobial activity,have antimicrobial activity
"CC1CCc2c(N3CCC(O)CC3)c(F)cc3c(=O)c(C(=O)O)cn1c23.N=C(N)NCCC[C@H](N)C(=O)O (racemic) [RS-(±)-9-fluoro-6,7-dihydro-8-(4-hydroxypiperidin-1-yl)-5-methyl-1-oxo-1H,5H-benzo[i,j]quinolizine-2-carboxylic acid L-arginine salt]",antimicrobial activity,antimicrobial activity,have antimicrobial activity
"C[C@@H]1CCc2c(N3CCC(O)CC3)c(F)cc3c(=O)c(C(=O)O)cn1c23.N=C(N)NCCC[C@H](N)C(=O)O [R-(+)-9-fluoro-6,7-dihydro-8-(4-hydroxypipe-1-yl)-5-1-oxo-1H,5H-benzo[i,j]quinolizine-2-carboxylic acid L-arginine salt]",antimicrobial activity,antimicrobial activity,have antimicrobial activity
"CC1CCc2c(N3CCC(O)CC3)c(F)cc3c(=O)c(C(=O)O)cn1c23.N=C(N)NCCCC(N)C(=O)O (racemic) [R, S-9-fluoro-6,7-dihydro-8-(4-hydroxypiperidin-1-yl)-5-methyl-1-oxo-1H,5H-benzo [i,j]-quinolizine-2-carboxylic acid DL-arginine salt]",antimicrobial activity,antimicrobial activity,have antimicrobial activity
"CC1CCc2c(N3CCC(O)CC3)c(F)cc3c(=O)c(C(=O)O)cn1c23.N=C(N)NCCC[C@@H](N)C(=O)O (racemic) [RS-(±)-9-fluoro-6,7-dihydro-8-(4-hydroxypiuenidin-1-yl)-5-methyl-1-oxo-1H,5H-benzo[i,j]quinolizine-2-carboxylic acid D-argirrine salt]",antimicrobial activity,antimicrobial activity,have antimicrobial activity
C[C@H]1CCc2c(N3CCC(O)CC3)c(F)cc3c(=O)c(C(=O)O)cn1c23,Mean mass diameter,[1]; hydrate,less than or equal to 40 µm
same,Mean mass diameter,"[1]; listed as Example 1, hydrate",32.92 µm and 24.22 µm and 34.51 µm and 39.07 µm
same,"Mean mass diameter, mean value",[1]; mean of four samples,32.68 µm
same,bioavailability,bioavailability,favorable bioavailability
same,Bulk density (tapped),"[2]; 25 gm/tapped volume, tapped 150 times",0.64 g/mL
same,Bulk density (untapped),[2]; 25 gm/untapped volume,0.57 g/mL
"C[C@@H]1CCc2c(N3CCC(O)CC3)c(F)cc3c(=O)c(C(=O)O)cn1c23.N=C(N)NCCC[C@@H](N)C(=O)O [R-(+)-9-fluoro-6,7-dihydro-8-(4-hydroxypiperidin-1-yl)-5-methyl-1-oxo-1H,5H-benzo[i,j]quinolizine-2-carboxylic acid D-arginine salt]",antimicrobial activity,antimicrobial activity,have antimicrobial activity
C[C@H]1CCc2c(N3CCC(O)CC3)c(F)cc3c(=O)c(C(=O)O)cn1c23 [reference compound],antimicrobial activity compared with the R-(+)- and RS-(±)-acids,antimicrobial activity,more potent antimicrobial activity
same,aqueous solubility,[3],800 to 2000 µg/mL
"S-(-)-9-fluoro-6,7-dihydro-8-(4-hydroxypiperidin-1-yl)-5-methyl-1-oxo-1H,5H-benzo [ij]-quinolizine-2-carboxylic acid DL-arginine salt",antimicrobial activity,antimicrobial activity,have antimicrobial activity
